Where two headings read alike, the source gives them in different places.
Tests used:
[1] = system: central nervous system (rotarod performance); assay: Accelerating rotarod test; format: in vivo, rat; settings: any of the three dose levels: 0.6, 2, 6 mg/kg solo; 0.3+0.3, 1+1, 3+3 mg/kg combination; per os; 45 and 90 min post-dose
Protocol: Animals were acclimatized to the laboratory conditions for at least 5 days before the first experiment and kept under artificial lighting between 7:00 and 19:00 in a controlled ambient temperature of 22±2° C. One hundred animals were assigned to ten treatment groups, which were tested in parallel with appropriate randomization, time shifts and cohorts needed to exploit the capacity of test apparatus. The test groups comprised nine test substance treated groups, of three treatment types (lisinopril, memantine and their 1:1 combination), each administered at three dose levels, and a vehicle control group for comparison. Corresponding dose levels of the combination were half of the doses of the solo drug treatments. Thus, the tested dose levels were 0.6, 2 and 6 mg/kg for the solo treatments and 0.3+0.3, 1+1 and 3+3 mg/kg for the combination. The test substances were dissolved in physiological saline for dosing volume of 5 mg/kg. The test substances were administered per os by gavage. […] One week later, the same animals received the same treatment and were tested in the rotarod test.
The rotarod test detects neurological deficits. Rats were placed on a rod (diameter: 7 cm) rotating at a constant speed of 4 revolutions per minute for a 2-minute period. When they fell off during this period they were replaced on the rod. […] The latency to fall off was recorded (cut-off: 3 minutes). […]

[2] = system: central nervous system (horizontal locomotor activity); assay: Locomotor activity test; format: in vivo, rat; settings: 60-90 minutes post-dose
Source text: Memantine is a neurological drug with neurological side effects at high doses, such as sedative or dissociative or psychotomimetic side effects in humans, and locomotion stimulating and motor coordination impairing effects in rodents. Therefore, as a further test to see if pharmacodynamic synergy exists also for cardinal side effects of the drug components of the combination two central nervous system side effect assessing pharmacodynamic interaction studies (locomotor activity and rotarod tests) were performed with lisinopril, memantine and their combination in rats. Male Sprague Dawley rats weighing 200-250 g at start of testing were used. Animals were acclimatized to the laboratory conditions for at least 5 days before the first experiment and kept under artificial lighting between 7:00 and 19:00 in a controlled ambient temperature of 22±2° C. One hundred animals were assigned to ten treatment groups, which were tested in parallel with appropriate randomization, time shifts and cohorts needed to exploit the capacity of test apparatus. […] Corresponding dose levels of the combination were half of the doses of the solo drug treatments. […] The test substances were dissolved in physiological saline for dosing volume of […]. The test substances were administered per os by gavage. First, the locomotor test was carried out. One week later, the same animals received the same treatment and were tested in the rotarod test. The locomotor activity test detects stimulant or sedative activity. The activity meter consisted of 16 covered Plexiglas cages (40×25×25 cm) contained within a darkened enclosure and connected to silent electronic counters. Each cage was equipped with four photocell assemblies (two at each end of the cage) 3 cm above the floor to measure the number of movements by each animal (one per cage) in the horizontal plane. The number of (horizontal) crossings by each animal (one per cage) from one pair of photocells to the other was recorded by computer in 10-minute intervals. […] The cumulated events in the period of 60-90 minutes post-dose were evaluated.

cardiovascular system = assay: Cardiovascular telemetry in awake unrestrained normotensive rats; format: in vivo, rat; settings: for Heart rate; difference from Vehicle treated, Mean / Mean arterial blood pressure; difference from Vehicle treated, Mean: oral gavage, post-dose period of 3-6 hours
Protocol: The cardiovascular parameters of normotensive rats instrumented with telemetric devices were investigated to determine whether the observed in vivo pharmacodynamic synergy exists also for cardinal side effects of the drug components of the combination. As lisinopril is an antihypertensive drug, its vasodilator and antihypertensive effects or other related cardiovascular effects may be cardinal side effects. Therefore, a cardiovascular telemetry study was performed with lisinopril, memantine and their combination in rats. Male Sprague-Dawley rats weighing 250-300 g at the start of the investigations were used. The animals were housed individually in artificially lightened chambers with a 12 h light and dark cycle (lights on at 07:00) and an ambient temperature of 20-22° C. Radiotelemetric units comprising transmitters with built in sensors (Data Sciences International, USA, Type: HD-S11) were surgically implanted into rats under sodium pentobarbital (50 mg/kg, i.p.) induced anesthesia. The rat abdomen was opened by a midline laparotomy. After visualizing the aorta, it was separated from the vena cava just caudal to the left dorsal muscular branch. A piece of 5-0 suture was placed between the vena cava and aorta so that the suture lied underneath the aorta. By this suture the aorta was temporarily occluded, and the catheter introduced into the vessel. After drying the aorta around the catheter entry site, a small amount of tissue adhesive was applied and 5-10 seconds later the suture was loosened. The bipolar ECG leads were tunneled subcutaneously into Lead II position and fixed with surgical sutures. Closure of the abdomen and skin was followed by 7 days recovery period. […] Drug tests were performed on 8 rats used repeatedly according to a 4-way crossover design, carried out in three sessions. In each session, all the 8 animals were treated and tested on 4 occasions with 3- or 4-days washout periods between treatments (i.e. Mondays and Thursdays in two weeks), so that on each occasion 4 pairs of rats were treated with 4 types of treatment (vehicle control, test substance A, test substance B and combination A+B), and during the 4 occasions all the animals were given all the 4 types of treatment according to a Latin-square 4-way crossover design. In the three consecutive 2-week-long sessions, three dose levels of test substances were tested in an escalating order. […] For evaluation and data reduction, pre-dose 10-min, post-dose 30-min segment averages were calculated and plotted (FIG. 5). […] None of the test substance treatments caused any apparent effect on the body temperature as compared to vehicle control data. The stress of handling and oral gavage administration caused a transient increase in both blood pressure and heart rate as indicated by changes in the vehicle treated data. However, after these transient changes, blood pressure and heart rate returned to the pre-dose level in the vehicle control group. […] For within session statistical analysis of differences from vehicle control, one-way ANOVA followed by Dunnett's test was used.

[3] = system: face allodynia in the infraorbital nerve ligation model; assay: Partial infraorbital nerve ligation model, reversal of face allodynia (head withdrawal threshold, von Frey); format: in vivo; settings: Rattus norvegicus, po; per os; mean (S.E.M.); individual maximum post-dose reversals; combination in terms of doses of the individual components; read-out: ED50 (effective dose causing 50% reversal of the allodynia)
Protocol: Infraorbital nerve ligation models, either by partial ligation or by the loose ligation of the whole nerve (chronic constriction injury) have been used as models of trigeminal neuralgia or trigeminal neuropathic pain. […] Male Sprague-Dawley rats weighing 200-220 g at surgery and 290-390 g at the time of testing were used. As primary read-outs of tactile pain sensitivity of the face, head withdrawal thresholds were measured by repeated stimulations using von Frey filaments (Touch Test Sensory Probes, Stoelting®). Before surgery, the rats were habituated to the testing for two weeks, first by handling (for 2 days) and then by repeated touching with von Frey filaments and finally determination of 50% head withdrawal thresholds (HWT) on three consecutive days. Rats with HWT<10 g at 2 out of 3 pre-surgery tests were not enrolled in the study. Sensitivity of the orofacial region was tested using calibrated von Frey filaments, with a series of filaments with bending force ranging between 0.4-14.8 g. […] HWTs were determined using Chaplan's up-down method, starting with the filament of 2 g bending force. […] The evaluated post-dose data (HWTs in gram) were converted to percent reversals, taking the simultaneous post-dose average HWT value of the vehicle treated group as 0% and the pre-surgery average value of animals involved in the test substance-treated group as 100%.

[4] = Pharmacokinetic interaction study of lisinopril and memantine; format: in vivo; settings: rat, serum
Protocol: The statistical significance of differences between corresponding solo treatment and combination treatment mean values was evaluated by Student's unpaired t-test. The areas under the curve between TO (time of dosing) and last tested timepoint (135 min) were also calculated to assess the drug exposures in each animal (Table 2).

[5] = system: periorbital allodynia in the dural inflammation model; assay: Dural inflammation (inflammatory soup) model, reversal of periorbital allodynia (periorbital threshold, von Frey); format: in vivo, rat; settings: 90 min post-dose; for reversal of allodynia at the medium dose level: solo 0.6 mg/kg per os
Source text: Male Sprague-Dawley rats weighing approximately 250 g at surgery were used. Rats were habituated and trained for 1-2 weeks and then fitted with a stainless-steel cannula (22GA, Plastics One) under isoflurane anesthesia. […] Special attention was given not to disturb the dura. A custom flange guide cannula (22GA, Plastics One) was inserted into the hole (cut 0.5 mm below pedestal). The cannula was fixed to the bone with small screws and dental cement. A dummy that extended just past the end of the guide cannula was inserted to prevent scar tissue from forming, and thus clogging the cannula. Animals were allowed 1-2 weeks of recovery before testing and infusions began. Periorbital thresholds (POT) were monitored 7-10 days after surgery to ensure the thresholds generally returned to pre-surgery baselines.
While under isoflurane anesthesia, the infusion procedure proceeded over 5 consecutive days in which a Hamilton syringe attached to an infusion pump was used to deliver 15 μL of inflammatory soup over 8 minutes, at a rate of 1.759 μL/min. The Hamilton syringe was connected to tubing with a custom cannula injector at the tip; the syringe, tubing line, and injector were filled to the tip with inflammatory soup solution. The custom cannula injector was inserted into the flange cannula and the infusion started. The inflammatory soup contained 2 mM histamine, 2 mM bradykinin, 2 mM serotonin, and 0.2 mM prostaglandin E2 dissolved in saline.
Only animals that developed sustained hypersensitivity and satisfied the periorbital sensitivity criteria (POT<2.5 g) were enrolled into the study and each week into test groups.
Sensory testing was performed on testing days using von Frey filaments (Stoelting®, Wood Dale, Illinois) with reproducible calibrated buckling forces varying from 0.4-10 g utilizing Chaplan's up-down method. The specific fibers utilized were 3.61 (0.4 g), 3.84 (0.6 g), 4.08 (1 g), 4.31 (2 g), 4.56 (4 g), 4.74 (6 g), 4.93 (8 g), and 5.07 (10 g); 4.31 (2 g) was the starting fiber. Allodynia was tested by gently restraining the rat in the investigator's hand by holding the rat in one hand with fingers just behind the left forepaw, keeping the animal pressed against the investigator's chest. Fibers were applied by perpendicularly touching the rostral portion of the periorbital region (below the lower eye margin close to the rostral corner) causing slight buckling of the filament for approximately 5 seconds. Based on the response pattern and the force of the final filament, the withdrawal threshold (g) was calculated.
On testing days, a blinded investigator tested periorbital sensitivity pre-dose, 45 min, 90 min, and 135 min after drug administration. […]

[6] = dose 0.3 mg/kg (combination containing the same dose of lisinopril)
[7] = dose 1 mg/kg (combination containing the same dose of lisinopril)
[8] = dose 3 mg/kg (combination containing the same dose of lisinopril)
[9] = Lisinopril 0.3 mg/kg, read-out: Concentration of Lisinopril, Mean
[10] = Lisinopril 1 mg/kg, read-out: Concentration of Lisinopril, Mean
[11] = Memantine 0.3 mg/kg, read-out: Concentration of Memantine, Mean
[12] = Memantine 1 mg/kg, read-out: Concentration of Memantine, Mean

SMILES: NCCCC[C@H](N[C@@H](CCc1ccccc1)C(=O)O)C(=O)N1CCC[C@H]1C(=O)O [Lisinopril, (S)-1-[N2-(1-carboxy-3-phenylpropyl)-L-lysyl]-L-proline]
- effect on rotarod performance (latency to fall off) [1]: neither lisinopril, nor memantine, nor their combination had a significant effect
- effect on the locomotor activity ([2]; any of the three dose levels: 0.6, 2, 6 mg/kg solo, 0.3+0.3, 1+1, 3+3 mg/kg combination, per os): neither lisinopril nor the combination exerted a significant effect
- suppression of the blood pressure (cardiovascular system; almost dose-independently, 0.3-3 mg/kg): about 7 mmHg
- Heart rate; difference from Vehicle treated, Mean (cardiovascular system; [6]): 8.37 beats per min
- Mean arterial blood pressure; difference from Vehicle treated, Mean (cardiovascular system; [6]): −7.05 mmHg
- Heart rate; difference from Vehicle treated, Mean (cardiovascular system; [7]): 20.62 beats per min
- Mean arterial blood pressure; difference from Vehicle treated, Mean (cardiovascular system; [7]): −7.47 mmHg
- Heart rate; difference from Vehicle treated, Mean (cardiovascular system; [8]): 29.39 beats per min
- Mean arterial blood pressure; difference from Vehicle treated, Mean (cardiovascular system; [8]): −7.72 mmHg
- ED50 [3]: 0.488 mg/kg
- concentration at 45 min [4, 9]: 5.75 ng/mL
- concentration at 90 min [4, 9]: 9.44 ng/mL
- concentration at 135 min [4, 9]: 14.2 ng/mL
- concentration at 45 min [4, 10]: 9.86 ng/mL
- concentration at 90 min [4, 10]: 43 ng/mL
- concentration at 135 min [4, 10]: 57 ng/mL
- AUC(0-t) ([4]; dose 0.3 mg/kg, read-out: Mean AUC (AUC0-135 min) of Lisinopril, Solo (converted)): 16.7 ng·h/mL
- AUC(0-t) ([4]; dose 1 mg/kg, read-out: Mean AUC (AUC0-135 min) of Lisinopril, Solo (converted)): 61 ng·h/mL
- ED40 (effective dose causing 40% reversal of the allodynia) ([5]; per os): 1.85 mg/kg
- reversal of allodynia at the medium dose level [5]: around 15%

SMILES: CC12CC3CC(C)(C1)CC(N)(C3)C2 [Memantine, 1-amino-3,5-dimethyladamantane]
- effect on rotarod performance (latency to fall off) [1]: neither lisinopril, nor memantine, nor their combination had a significant effect
- effect on the locomotor activity ([2]; highest dose level (6 mg/kg per os)): significant increase
- effect on the locomotor activity ([2]; two lower dose levels (0.6 and 2 mg/kg per os)): not at the two lower dose levels
- effect on hemodynamic parameters (blood pressure, heart rate) (cardiovascular system; 0.3, 1 and 3 mg/kg, combination compared with lisinopril): no effect
- Heart rate; difference from Vehicle treated, Mean (cardiovascular system; [6]): −2.87 beats per min
- Mean arterial blood pressure; difference from Vehicle treated, Mean (cardiovascular system; [6]): −1.39 mmHg
- Heart rate; difference from Vehicle treated, Mean (cardiovascular system; [7]): −8.51 beats per min
- Mean arterial blood pressure; difference from Vehicle treated, Mean (cardiovascular system; [7]): 0.11 mmHg
- Heart rate; difference from Vehicle treated, Mean (cardiovascular system; [8]): −3.03 beats per min
- Mean arterial blood pressure; difference from Vehicle treated, Mean (cardiovascular system; [8]): −0.13 mmHg
- ED50 [3]: 0.478 mg/kg
- concentration at 45 min [4, 11]: 5.58 ng/mL
- concentration at 90 min [4, 11]: 8.46 ng/mL
- concentration at 135 min [4, 11]: 8.91 ng/mL
- concentration at 45 min [4, 12]: 11.4 ng/mL
- concentration at 90 min [4, 12]: 22.3 ng/mL
- concentration at 135 min [4, 12]: 24.2 ng/mL
- AUC(0-t) ([4]; dose 0.3 mg/kg, read-out: Mean AUC (AUC0-135 min) of Memantine, Solo (converted)): 13.9 ng·h/mL
- AUC(0-t) ([4]; dose 1 mg/kg, read-out: Mean AUC (AUC0-135 min) of Memantine, Solo (converted)): 34.4 ng·h/mL
- reversing effect on the allodynia (percent reversal) ([5]; per os 0.2, 0.6 and 2 mg/kg): ≤ 15%
- reversal of allodynia at the medium dose level [5]: around 15%

— US20250302802A1, “METHODS AND COMPOSITIONS” (VRG 145 ZRT., priority 2024, published 2025)
